Source: ChEMBL document CHEMBL1268914, “5,6,7,8-Tetrahydropyrido[4,3-d]pyrimidines as novel class of potent and highly selective CaMKII inhibitors” (Bioorg Med Chem Lett, 2010)

Experiments:
[1] = Inhibition of CAMK2
[2] = target: Mitogen-activated protein kinase 14 (Homo sapiens, UniProt Q16539); assay: Inhibition of p38alpha
[3] = target: RAC-alpha serine/threonine-protein kinase (Homo sapiens, UniProt P31749); assay: Inhibition of AKT1
[4] = Inhibition of PKC
[5] = Non-competitive inhibition of CAMK2 by Michaelis-Menten plot
[6] = target: Myosin light chain kinase, smooth muscle (Homo sapiens, UniProt Q15746); assay: Inhibition of MLCK
[7] = target: T1, Calcium/calmodulin-dependent protein kinase type IV (Homo sapiens, UniProt Q16566); assay: Inhibition of CAMK4
T1 sequence (Q16566 whole entry): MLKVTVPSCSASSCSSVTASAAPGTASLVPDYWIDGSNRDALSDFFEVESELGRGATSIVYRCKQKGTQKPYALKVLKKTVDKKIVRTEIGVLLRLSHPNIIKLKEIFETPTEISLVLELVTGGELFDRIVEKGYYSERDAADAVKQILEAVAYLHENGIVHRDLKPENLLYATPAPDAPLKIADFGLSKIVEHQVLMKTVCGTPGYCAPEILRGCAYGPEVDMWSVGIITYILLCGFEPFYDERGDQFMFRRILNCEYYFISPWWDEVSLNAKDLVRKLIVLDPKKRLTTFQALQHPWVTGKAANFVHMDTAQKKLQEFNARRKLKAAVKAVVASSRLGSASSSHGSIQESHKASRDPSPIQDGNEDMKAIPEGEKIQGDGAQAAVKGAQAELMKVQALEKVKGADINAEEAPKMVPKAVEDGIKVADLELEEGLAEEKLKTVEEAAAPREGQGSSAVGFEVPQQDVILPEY

Chain of Myosin light chain kinase, smooth muscle (Q15746 whole entry): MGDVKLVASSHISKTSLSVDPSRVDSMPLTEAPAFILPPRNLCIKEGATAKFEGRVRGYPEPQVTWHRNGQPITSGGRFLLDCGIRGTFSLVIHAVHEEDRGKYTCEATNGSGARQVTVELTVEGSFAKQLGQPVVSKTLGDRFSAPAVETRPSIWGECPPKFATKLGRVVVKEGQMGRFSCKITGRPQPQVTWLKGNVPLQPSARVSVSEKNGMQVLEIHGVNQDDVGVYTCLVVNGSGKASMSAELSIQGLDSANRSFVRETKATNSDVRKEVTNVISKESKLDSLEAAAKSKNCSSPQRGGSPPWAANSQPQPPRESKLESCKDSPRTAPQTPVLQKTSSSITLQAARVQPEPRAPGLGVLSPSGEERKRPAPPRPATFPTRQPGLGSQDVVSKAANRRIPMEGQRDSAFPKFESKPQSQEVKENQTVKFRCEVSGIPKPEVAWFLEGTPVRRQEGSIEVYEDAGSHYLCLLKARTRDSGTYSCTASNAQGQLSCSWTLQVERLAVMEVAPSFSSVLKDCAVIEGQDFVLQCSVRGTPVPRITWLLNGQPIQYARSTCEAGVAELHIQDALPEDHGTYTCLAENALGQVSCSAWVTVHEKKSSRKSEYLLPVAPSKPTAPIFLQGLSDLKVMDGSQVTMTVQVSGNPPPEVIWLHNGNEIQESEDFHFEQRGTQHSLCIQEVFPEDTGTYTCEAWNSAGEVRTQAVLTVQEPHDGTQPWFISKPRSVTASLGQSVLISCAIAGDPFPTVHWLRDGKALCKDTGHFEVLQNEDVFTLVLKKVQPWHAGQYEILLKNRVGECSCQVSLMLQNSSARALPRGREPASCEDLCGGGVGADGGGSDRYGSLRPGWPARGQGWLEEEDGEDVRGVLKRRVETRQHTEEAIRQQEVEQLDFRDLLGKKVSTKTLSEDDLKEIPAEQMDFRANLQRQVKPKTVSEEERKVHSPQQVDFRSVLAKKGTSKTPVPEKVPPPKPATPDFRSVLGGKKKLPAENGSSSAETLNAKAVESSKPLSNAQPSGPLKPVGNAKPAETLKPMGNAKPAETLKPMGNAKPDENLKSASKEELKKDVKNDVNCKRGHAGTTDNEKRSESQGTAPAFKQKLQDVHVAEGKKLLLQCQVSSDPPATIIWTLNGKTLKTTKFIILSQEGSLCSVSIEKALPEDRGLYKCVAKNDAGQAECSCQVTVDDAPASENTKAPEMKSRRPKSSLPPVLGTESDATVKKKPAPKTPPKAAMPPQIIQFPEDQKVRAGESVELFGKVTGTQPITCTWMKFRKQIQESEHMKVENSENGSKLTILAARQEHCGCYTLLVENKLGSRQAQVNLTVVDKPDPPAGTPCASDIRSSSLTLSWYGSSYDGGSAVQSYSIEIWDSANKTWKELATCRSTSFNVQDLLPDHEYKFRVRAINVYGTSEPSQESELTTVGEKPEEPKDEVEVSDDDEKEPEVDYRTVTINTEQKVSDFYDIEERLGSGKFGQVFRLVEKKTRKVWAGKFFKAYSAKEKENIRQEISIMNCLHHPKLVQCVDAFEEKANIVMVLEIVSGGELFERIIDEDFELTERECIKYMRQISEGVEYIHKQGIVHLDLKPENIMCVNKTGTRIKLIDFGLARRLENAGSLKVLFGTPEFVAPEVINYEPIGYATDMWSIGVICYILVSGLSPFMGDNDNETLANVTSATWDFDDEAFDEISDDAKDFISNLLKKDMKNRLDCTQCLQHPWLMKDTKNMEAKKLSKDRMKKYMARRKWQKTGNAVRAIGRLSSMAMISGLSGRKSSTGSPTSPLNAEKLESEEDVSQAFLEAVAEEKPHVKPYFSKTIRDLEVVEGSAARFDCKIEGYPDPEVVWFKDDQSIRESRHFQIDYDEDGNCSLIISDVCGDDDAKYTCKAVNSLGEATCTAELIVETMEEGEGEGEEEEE
Chain of Mitogen-activated protein kinase 14 (Q16539 whole entry): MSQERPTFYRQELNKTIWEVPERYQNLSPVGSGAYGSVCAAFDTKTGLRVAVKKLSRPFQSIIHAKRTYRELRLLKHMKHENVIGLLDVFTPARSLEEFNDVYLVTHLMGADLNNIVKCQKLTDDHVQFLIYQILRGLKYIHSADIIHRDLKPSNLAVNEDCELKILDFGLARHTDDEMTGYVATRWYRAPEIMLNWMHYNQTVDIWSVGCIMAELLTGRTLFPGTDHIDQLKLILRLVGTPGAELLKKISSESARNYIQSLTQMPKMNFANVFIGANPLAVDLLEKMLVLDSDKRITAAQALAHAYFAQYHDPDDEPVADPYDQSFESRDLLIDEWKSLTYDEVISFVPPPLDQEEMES
Chain of RAC-alpha serine/threonine-protein kinase (P31749 whole entry): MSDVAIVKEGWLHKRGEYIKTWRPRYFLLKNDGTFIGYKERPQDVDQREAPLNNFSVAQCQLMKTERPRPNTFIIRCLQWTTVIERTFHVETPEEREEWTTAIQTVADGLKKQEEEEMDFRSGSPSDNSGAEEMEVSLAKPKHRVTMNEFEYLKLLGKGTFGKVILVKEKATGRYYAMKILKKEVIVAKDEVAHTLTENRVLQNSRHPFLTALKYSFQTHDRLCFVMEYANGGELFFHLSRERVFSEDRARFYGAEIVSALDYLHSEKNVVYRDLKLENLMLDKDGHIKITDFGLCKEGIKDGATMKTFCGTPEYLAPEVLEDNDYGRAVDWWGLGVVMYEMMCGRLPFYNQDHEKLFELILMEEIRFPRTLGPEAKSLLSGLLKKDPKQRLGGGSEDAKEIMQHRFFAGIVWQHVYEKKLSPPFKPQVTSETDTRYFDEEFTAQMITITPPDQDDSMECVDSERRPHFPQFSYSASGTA

IC50 [1] [µM] | SMILES | other results
9.7 | O=S(=O)(Nc1nc(NCCc2ccccc2)nc2c1CN(Cc1ccccc1)CC2)c1ccccc1 | 
1 | O=S(=O)(Nc1nc(NCCc2ccccc2)nc2c1CN(Cc1ccccc1)CC2)c1cccc(Cl)c1Cl | 
60 | O=S(=O)(Nc1nc(NCCc2ccccc2)nc2c1CCCC2)c1ccc(Cl)cc1 | 
0.16 | O=S(=O)(Nc1nc(NCCc2ccccc2)nc2c1CN(Cc1ccccc1)CC2)c1ccc2ccccc2c1 | IC50 [2]: 11 µM; IC50 [3]: 8.5 µM; IC50 [4]: 22 µM; Ki [5]: 0.926 µM; IC50 [6]: 0.9 µM; IC50 [7]: > 60 µM
1.6 | COc1ccc(S(=O)(=O)N(CCO)c2ccccc2CN(C)C/C=C/c2ccc(Cl)cc2)cc1 | 
0.063 | Cc1c(Cl)cccc1S(=O)(=O)Nc1nc(NCCc2ccccc2)nc2c1CN(Cc1ccccc1)CC2 | IC50 [2]: 11 µM; IC50 [3]: 30 µM; IC50 [4]: 21 µM; IC50 [6]: 36 µM; IC50 [7]: > 60 µM
11 | O=S(=O)(Nc1ccnc(NCCc2ccccc2)n1)c1ccc(Cl)cc1 | IC50 [6]: 51 µM
0.42 | O=S(=O)(Nc1nc(NCCc2ccccc2)nc2c1CN(Cc1ccccc1)CC2)c1cccc(Cl)c1 | 
2.4 | Cc1cccc(S(=O)(=O)Nc2nc(NCCc3ccccc3)nc3c2CN(Cc2ccccc2)CC3)c1 | 
0.92 | O=S(=O)(Nc1nc(NCCc2ccccc2)nc2c1CN(Cc1ccccc1)CC2)c1ccccc1Cl | 
9.3 | CN(c1nc(NCCc2ccccc2)nc2c1CN(Cc1ccccc1)CC2)S(=O)(=O)c1ccccc1 | 
0.53 | Cc1ccccc1S(=O)(=O)Nc1nc(NCCc2ccccc2)nc2c1CN(Cc1ccccc1)CC2 | 
3.3 | O=S(=O)(Nc1nc(NCCc2ccccc2)nc2c1CN(Cc1ccccc1)CC2)c1cccc2ccccc12 | 
60 | CS(=O)(=O)Nc1ccnc(NCCc2ccccc2)n1 | 
0.76 | Cc1ccc(S(=O)(=O)Nc2nc(NCCc3ccccc3)nc3c2CN(Cc2ccccc2)CC3)cc1Cl | 
1.8 | O=S(=O)(Nc1nc(OCCc2ccccc2)nc2c1CN(Cc1ccccc1)CC2)c1ccc2ccccc2c1 | 
3.2 | COc1ccc(S(=O)(=O)Nc2nc(NCCc3ccccc3)nc3c2CN(Cc2ccccc2)CC3)cc1 | 
3.2 | O=S(=O)(Nc1nc(NCCc2ccccc2)nc2c1CN(Cc1ccccc1)CC2)c1ccc(Cl)cc1 | 
2.7 | Cc1ccc(S(=O)(=O)Nc2nc(NCCc3ccccc3)nc3c2CN(Cc2ccccc2)CC3)cc1 | 
27 | O=S(=O)(Cc1ccccc1)Nc1ccnc(NCCc2ccccc2)n1 | 
10 | CN1CCc2nc(NCCc3ccccc3)nc(NS(=O)(=O)c3ccccc3)c2C1 | 
0.2 | O=S(=O)(Nc1nc(NCCc2ccccc2)nc2c1CN(Cc1ccccc1)CC2)c1ccc(Cl)c(Cl)c1 | 
> 30 | CCCN(c1nc(NCCc2ccccc2)nc2c1CN(Cc1ccccc1)CC2)S(=O)(=O)c1ccccc1 | 
